Results from PMC9304322, “Targeting retinoic acid receptor alpha-corepressor interaction activates chaperone-mediated autophagy and protects against retinal degeneration” (Nature Communications, 2022).
Several values for one entry are separate records, joined by “and”; a condition that tells them apart may be missing. Identical values can stand only once. Where no end group is shown, it is not given here. The star is where a group is joined. FITC = O=C1OC2(c3ccc(O)cc3Oc3cc(O)ccc32)c2ccc(NC(=S)*)cc21; Ahx = NCCCCCC(=O)O

Experiments:
[1] = test system: NIH3T3 cells stably expressing the mCherry-GFP-LC3 reporter; test: Macroautophagy activity, mCherry-GFP-LC3 reporter; format: cell-based, mouse
Protocol: Cells were transduced with a lentiviral vector expressing mCherry-GFP-LC3[35], fixed and flux determined as the conversion of dual fluorescence puncta (autophagosomes) into only red fluorescent puncta (autolysosomes). Flux was also measured by immunoblot for LC3 in cells incubated for 6 h with 20 mM NH4Cl/100 μM leupeptin, by discounting the intensity of LC3 in non-treated cells from that in cells treated with the inhibitors.

[2] = biological target: T1, N-CoR1 and RARα (Mus musculus, UniProt P11416); test: Streptavidin pulldown of biotin-CA, immunoblot for N-CoR1 and RARα; format: cell-based; conditions: NIH3T3, 10 μM for 24 h
T1 construct: endogenous in cells; host or cells: NIH3T3

[3] = test system: NIH3T3 cells; test: Microarray transcriptional changes; format: cell-based, mouse; conditions: NIH3T3; 20μM for 24 h
Protocol: Total RNA of the treated cells was extracted using TRIzol (Invitrogen) and purified with RNeasy chromatography (Qiagen). Cy3-labeled RNA (0.6 μg) from each condition was hybridized to Agilent Mouse 8x60K. Data were processed using the oligo package and normalized using Robust Multiarray Average (RMA) method. […] Pathway analysis was performed using the STRING database ([…]).

[4] = test system: rd10 mice; test: rd10 mice, single intravitreal injection, retina histology; format: in vivo, mouse; conditions: rd10 mice; individual values and Mean CA77
Protocol: C57BL/6 J mice wild-type (WT) and homozygous for the Pde6 mutation (rd10 mouse model of retinal degeneration) were obtained from The Jackson Laboratory and experiments were performed at the age indicated in each part of the study. C57BL/6 KFERQ-Dendra mice were generated by back-crossing FVB KFERQ-Dendra mice with wild-type C57BL/6 mice for 8 generations. Both male and female animals were used in this study in equally distribution groups. However, results from both sexes were pooled, because of absence of significant differences in any of the parameters analyzed after statistical analysis with a mixed model of two-way ANOVA sex and treatment as independent variables and the corresponding measure as dependent variable. All animals were housed in a barrier-controlled facility (19–23 °C 30–60% relative humidity; 12 h light/dark cycle) with ad libitum access to standard chow pellets (protein 19 gm%/carbohydrate 67 gm%/fat 4 gm%) and water. For animal administration of CA compounds, a formula containing 30% PEG 400 (Sigma, #8.0745), 65% of 5% glucose solution, 5% Tween 80 (Sigma, #P1754) was used to dissolve them. CA compounds were prepared freshly by adding 5% DMSO and sonicating for 1 h. Treatment of KFERQ-Dendra mice with the CA compounds was done at 4 months of age by i.p. daily injection of 30 mg/kg bw or vehicle for three consecutive days and tissues collected 6 h after the last injection. In the case of rd10 mice, animals were daily injected from P18 to P25 with CA77 (40 mg/kg bw). In the case of intravitreal administration, a single intravitreal injection was applied at P18 with CA77 (40 µM) in DMSO/PBS and the contralateral eye was injected with PBS and DMSO at same concentration. At P26, mice were sacrificed and eyes fixed overnight with 4% PFA (Sigma, #P6148) in PBS at 4 °C for immunofluorescence or retinas dissected and immediately frozen for biochemistry. Distribution of animals in the vehicle or treatment group was done randomly. ICR (CD-1) outbred 3 months old male mice from ENVIGO were used for the pharmacokinetic studies (see pharmacokinetic section for housing and handling details). All animal studies and procedures complied with ethical regulations, were performed in accordance with the European Union guidelines and the ARVO Statement for the Use of Animals in Ophthalmic and Vision Research and were approved by the Institutional Animal Care and Use Committee at the Albert Einstein College of Medicine, the CSIC Bioetica Comite and approved by the Comunidad de Madrid, PROEX232/17.
12 μm cryosections and immunofluorescence in retinal sections[10] after orienting retinas with a dorsal mark, so comparisons were performed taking into account the precise retinal area. Primary antibodies used in this study were visual (rod) arrestin, cone arrestin, Opsin R/G, transducin, GFAP, N-CoR1. Sections were visualized by confocal microscopy (TCS SP5; Leica Microsystems).
For ONL thickness quantification, DAPI images were taken at 40X in a fluorescence microscope Multidimensional system Leica AF6000 LX coupled to DMI600B microscope and Hamamatsu CCD 9100-O2 camera. At least two sections per animal were analyzed, preferably central sections. Eight images per retina equally distributed along the retina were acquired. Three measures were taken per image and ratio ONL/INL quantified with ImageJ tools. Leica LAS-X (3.7.4.23463) was used for image acquisition and ImageJ (v.2.1.0) was used for image processing. For OS length measures, fixed positions common to all pictures were considered and OS length was measured using ImageJ straight line tool.
Eyes were enucleated, put in a plate with cold PBS and an incision was made under the microscope to let the fixative enter into the eye. […]

[5] = biological target: T2, ligand binding domain (LBD) of the human RARα (residues 176-421) (human, UniProt P10276 176-421); test: fluorescence polarisation; FITC-N-CoR1 (5 nM) with serial two-fold dilutions of RARα LBD from 10 uM, without or with small molecules (10 uM: BMS, CA39, CA77); 20 mM Tris-HCl pH 7.5, 150 mM NaCl, 1 mM EDTA, 5 mM DTT, 10% glycerol; read at 30 min; conditions: both partners purified
T2 construct: also called RARα LBD; retinoic acid receptor alpha; source: E. coli BL21(DE3) RIL, purified (Ni-NTA, ULP1 cleavage, subtractive Ni-NTA, Superdex 200); not shown: His6-SUMO, N-terminal, cleaved
T2 sequence (looked up): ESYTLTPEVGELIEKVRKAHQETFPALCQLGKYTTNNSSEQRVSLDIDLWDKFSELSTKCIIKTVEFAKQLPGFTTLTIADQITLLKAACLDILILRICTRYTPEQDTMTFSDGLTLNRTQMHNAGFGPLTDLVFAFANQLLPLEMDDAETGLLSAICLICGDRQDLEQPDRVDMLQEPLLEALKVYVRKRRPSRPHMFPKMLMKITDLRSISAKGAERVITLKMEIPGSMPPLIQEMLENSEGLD

[6] = c0 = 2 (axis unlabelled; ANOVA calls row factor Time)

T1 sequence (P11416 whole entry): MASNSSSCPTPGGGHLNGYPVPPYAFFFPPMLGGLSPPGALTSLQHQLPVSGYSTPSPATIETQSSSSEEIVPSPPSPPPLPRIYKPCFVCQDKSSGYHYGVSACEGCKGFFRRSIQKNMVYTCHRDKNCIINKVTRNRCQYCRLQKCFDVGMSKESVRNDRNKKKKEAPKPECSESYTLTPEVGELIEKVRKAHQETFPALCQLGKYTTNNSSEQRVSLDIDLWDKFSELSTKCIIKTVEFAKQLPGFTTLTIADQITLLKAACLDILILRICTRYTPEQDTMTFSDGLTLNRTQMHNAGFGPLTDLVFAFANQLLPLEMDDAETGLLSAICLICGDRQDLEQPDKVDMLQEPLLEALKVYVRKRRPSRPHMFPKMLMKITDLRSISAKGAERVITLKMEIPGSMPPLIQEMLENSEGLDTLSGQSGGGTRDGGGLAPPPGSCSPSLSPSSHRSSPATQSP
T1 sequence (Q60974 whole entry partner): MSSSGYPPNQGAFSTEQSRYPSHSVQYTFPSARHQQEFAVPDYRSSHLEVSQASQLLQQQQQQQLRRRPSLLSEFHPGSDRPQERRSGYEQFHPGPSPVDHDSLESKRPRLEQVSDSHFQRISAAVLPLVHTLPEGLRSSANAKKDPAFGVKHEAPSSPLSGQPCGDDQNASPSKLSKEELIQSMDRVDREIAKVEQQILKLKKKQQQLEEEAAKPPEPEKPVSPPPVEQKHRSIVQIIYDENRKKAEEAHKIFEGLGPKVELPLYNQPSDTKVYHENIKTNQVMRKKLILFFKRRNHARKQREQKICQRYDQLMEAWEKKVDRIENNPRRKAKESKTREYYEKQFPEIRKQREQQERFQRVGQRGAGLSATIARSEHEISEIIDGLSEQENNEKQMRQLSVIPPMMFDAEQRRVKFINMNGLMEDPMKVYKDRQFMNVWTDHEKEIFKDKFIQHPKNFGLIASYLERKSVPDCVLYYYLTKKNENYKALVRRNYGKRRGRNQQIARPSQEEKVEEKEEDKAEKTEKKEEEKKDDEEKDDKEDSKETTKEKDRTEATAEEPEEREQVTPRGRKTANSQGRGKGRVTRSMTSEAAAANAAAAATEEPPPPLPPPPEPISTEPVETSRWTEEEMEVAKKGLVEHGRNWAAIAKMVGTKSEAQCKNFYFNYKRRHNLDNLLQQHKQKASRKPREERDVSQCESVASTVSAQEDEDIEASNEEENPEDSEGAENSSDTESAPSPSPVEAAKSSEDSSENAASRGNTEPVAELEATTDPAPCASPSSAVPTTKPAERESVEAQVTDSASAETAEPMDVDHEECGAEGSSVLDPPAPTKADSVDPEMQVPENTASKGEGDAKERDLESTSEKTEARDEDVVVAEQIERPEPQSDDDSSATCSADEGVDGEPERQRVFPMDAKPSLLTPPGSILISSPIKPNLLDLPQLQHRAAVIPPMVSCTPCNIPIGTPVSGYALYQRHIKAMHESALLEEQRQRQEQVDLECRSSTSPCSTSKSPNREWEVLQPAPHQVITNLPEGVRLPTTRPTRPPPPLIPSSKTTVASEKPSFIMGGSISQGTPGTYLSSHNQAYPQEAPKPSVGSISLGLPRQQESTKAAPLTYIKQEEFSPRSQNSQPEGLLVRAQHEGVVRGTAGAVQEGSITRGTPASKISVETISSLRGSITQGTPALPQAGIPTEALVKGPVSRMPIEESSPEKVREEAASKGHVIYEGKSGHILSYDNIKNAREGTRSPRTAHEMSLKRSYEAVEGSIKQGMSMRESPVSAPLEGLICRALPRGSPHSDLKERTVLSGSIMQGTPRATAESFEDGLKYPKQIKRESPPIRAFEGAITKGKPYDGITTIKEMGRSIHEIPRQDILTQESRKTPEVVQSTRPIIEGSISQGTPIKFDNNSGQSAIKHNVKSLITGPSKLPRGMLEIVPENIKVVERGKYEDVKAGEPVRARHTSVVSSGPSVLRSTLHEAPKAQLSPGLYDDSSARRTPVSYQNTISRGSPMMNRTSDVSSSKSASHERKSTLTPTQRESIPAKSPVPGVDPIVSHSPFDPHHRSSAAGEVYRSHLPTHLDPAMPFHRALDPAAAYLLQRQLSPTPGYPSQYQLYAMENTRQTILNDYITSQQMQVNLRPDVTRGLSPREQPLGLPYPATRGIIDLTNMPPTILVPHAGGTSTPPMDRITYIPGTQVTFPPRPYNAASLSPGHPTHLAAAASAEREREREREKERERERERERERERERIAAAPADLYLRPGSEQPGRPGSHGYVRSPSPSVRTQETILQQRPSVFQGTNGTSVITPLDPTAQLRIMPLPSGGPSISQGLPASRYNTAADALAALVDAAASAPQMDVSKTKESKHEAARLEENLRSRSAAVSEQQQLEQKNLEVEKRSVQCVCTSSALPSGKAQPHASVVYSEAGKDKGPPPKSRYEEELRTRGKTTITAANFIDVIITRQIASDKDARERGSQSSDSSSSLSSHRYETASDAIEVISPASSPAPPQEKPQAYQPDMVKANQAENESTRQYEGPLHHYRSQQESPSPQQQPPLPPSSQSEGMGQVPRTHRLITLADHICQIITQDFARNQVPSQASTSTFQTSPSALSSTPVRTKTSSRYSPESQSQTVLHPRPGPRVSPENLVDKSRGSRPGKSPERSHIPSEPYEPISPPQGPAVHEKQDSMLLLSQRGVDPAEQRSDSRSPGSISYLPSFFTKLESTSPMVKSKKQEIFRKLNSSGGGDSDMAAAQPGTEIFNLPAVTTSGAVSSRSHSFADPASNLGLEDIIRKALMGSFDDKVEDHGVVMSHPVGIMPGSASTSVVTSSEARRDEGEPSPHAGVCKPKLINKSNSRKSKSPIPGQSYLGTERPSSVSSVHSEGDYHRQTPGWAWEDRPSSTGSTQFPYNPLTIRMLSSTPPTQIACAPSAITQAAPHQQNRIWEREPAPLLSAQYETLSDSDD

Molecule: CO[C@H]1C[C@@H]2CC[C@@H](C)[C@@](O)(O2)C(=O)C(=O)N2CCCC[C@H]2C(=O)O[C@H]([C@H](C)C[C@@H]2CC[C@@H](O)[C@H](OC)C2)CC(=O)[C@H](C)/C=C(\C)[C@@H](O)[C@@H](OC)C(=O)[C@H](C)C[C@H](C)/C=C/C=C/C=C/1C [rapamycin, reference compound]
- APG (Fig. S3e) [1, 6]: 1.605
- AUT (Fig. S3e) [1, 6]: 1.965
- AV (Fig. S3e) [1, 6]: 3.57
- APG (Fig. S3e) ([1]; c0 = 5 (axis unlabelled)): 2.415
- AUT (Fig. S3e) ([1]; c0 = 5 (axis unlabelled)): 2.129
- AV (Fig. S3e) ([1]; c0 = 5 (axis unlabelled)): 4.544
- APG (Fig. S3e) ([1]; c0 = 10 (axis unlabelled)): 3.3128
- AUT (Fig. S3e) ([1]; c0 = 10 (axis unlabelled)): 3.752
- AV (Fig. S3e) ([1]; c0 = 10 (axis unlabelled)): 7.064
- APG (Fig. S3e) ([1]; c0 = 20 (axis unlabelled)): 5.184
- AUT (Fig. S3e) ([1]; c0 = 20 (axis unlabelled)): 4.731
- AV (Fig. S3e) ([1]; c0 = 20 (axis unlabelled)): 9.915
- APG (Fig. S3e) ([1]; c0 = 30 (axis unlabelled)): 4.9183
- AUT (Fig. S3e) ([1]; c0 = 30 (axis unlabelled)): 11.4046
- AV (Fig. S3e) ([1]; c0 = 30 (axis unlabelled)): 16.3229

Molecule: O=C(CCCCC1SCC2NC(=O)NC21)NCCCOCCOCCOCCCNC(=O)c1ccc(C2=Nc3ccc(Cl)cc3OC2)cc1 (stereo not shown) [biotinylated CA compound]
- co-immunoprecipitation of cellular RARα and N-CoR1 [2]: could be co-immunoprecipitated

Molecule: CC1(C)CC=C(c2cnc3ccccc3c2)c2cc(C(=O)Nc3ccc(C(=O)O)cc3)ccc21 [BMS614, reference compound]
- changes in the transcriptome [3]: marked changes in the transcriptome

Molecule: CC(=O)Nc1ccc(C2=Nc3ccc(Cl)cc3OC2)cc1 [CA 77]
- Fig. 7a, retinal measurement by eccentricity, eccentricity 1 [4]: 0.2752 and 0.2828 and 0.2675 and 0.4954 and 0.393 and 0.3603 and 0.3938
- Fig. 7a, retinal measurement by eccentricity, eccentricity 2 [4]: 0.3254 and 0.2696 and 0.3495 and 0.2864 and 0.4558 and 0.3792 and 0.723
- Fig. 7a, retinal measurement by eccentricity, eccentricity 3 [4]: 0.3333 and 0.3595 and 0.4443 and 0.4969 and 0.8558 and 0.7642 and 0.8417
- Fig. 7a, retinal measurement by eccentricity, eccentricity 4 [4]: 0.6989 and 0.5535 and 0.938 and 1.0799 and 0.9103 and 0.9911 and 0.7623
- Fig. 7a, retinal measurement by eccentricity, eccentricity -1 [4]: 0.7616 and 0.2157 and 0.1911 and 0.3575 and 0.223 and 0.305
- Fig. 7a, retinal measurement by eccentricity, eccentricity -2 [4]: 0.2825 and 0.2446 and 0.25 and 0.4552 and 0.7496 and 0.1825 and 0.2782
- Fig. 7a, retinal measurement by eccentricity, eccentricity -3 [4]: 0.4178 and 0.4298 and 0.7568 and 0.9291 and 0.9244 and 0.276 and 0.3979

B1: fluorescein-tagged peptide of N-CoR1, FITC-Ahx-RLITLADHICQIITQDFAR (peptide)
peptide: {FITC-Ahx}-RLITLADHICQIITQDFAR
notes: peptide of nuclear receptor corepressor 1 (N-CoR1); also called FITC-N-CoR1; N-CoR1 peptide; source: synthetic peptide; bought: Genscript, purity > 95%
- binding result [5]: binds
